Measured values reported in PMC10745882, “Investigation of Drug-Interaction Potential for Arthritis Dietary Supplements: Chondroitin Sulfate, Glucosamine, and Methylsulfonylmethane” (Molecules, 2023).

Tests used:
Assay type in all cases: in vitro ADME
CYP3A4(T) = target: T1, CYP3A4(T) (Homo sapiens, UniProt P08684); assay: CYP inhibition assay in human liver microsomes (LC-MS/MS cocktail), testosterone to 6-β-OH-Testosterone
T1 construct: Pooled human liver microsomes were purchased from BD Gentest; tissue BD Gentest; host or cells: pooled human liver microsomes
T1 sequence (P08684 whole entry): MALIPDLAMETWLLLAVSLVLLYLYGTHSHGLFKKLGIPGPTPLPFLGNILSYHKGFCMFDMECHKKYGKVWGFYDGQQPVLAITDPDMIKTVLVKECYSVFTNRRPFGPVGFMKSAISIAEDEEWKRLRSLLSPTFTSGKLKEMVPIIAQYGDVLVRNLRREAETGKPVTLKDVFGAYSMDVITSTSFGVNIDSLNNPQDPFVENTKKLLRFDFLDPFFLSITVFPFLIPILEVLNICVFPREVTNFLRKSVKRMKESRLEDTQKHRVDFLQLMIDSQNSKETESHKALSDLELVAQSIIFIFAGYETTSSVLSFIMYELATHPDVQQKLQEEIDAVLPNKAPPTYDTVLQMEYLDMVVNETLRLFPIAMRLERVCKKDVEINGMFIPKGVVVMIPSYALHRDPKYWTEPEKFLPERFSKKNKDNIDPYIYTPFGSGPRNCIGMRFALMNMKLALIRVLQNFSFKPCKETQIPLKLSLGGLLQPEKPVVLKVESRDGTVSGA
Description: (§1) For the experimental method, the reference method was used. Briefly, incubation mixtures were composed of 0.5 mg/mL human liver microsomes; varying concentrations of CS in DW (0.1, 0.3, 1, 3, 10, 30, 100, and 200 µM) or MSM in DW (0.1, 0.3, 1, 3, 10, 30, 100, 300, and 1000 µM) or GCS in DMSO (0.1, 0.3, 1, 3, 10, 30, 100, 300, and 1000 µM); a substrate mixture in DMSO (40 µM phenacetin for CYP1A2; 2.5 µM coumarin for CYP2A6; 80 µM bupropion for CYP2B6; 10 µM diclofenac for CYP2C9; 80 µM [±]-mephenytoin for CYP2C19; 5 µM dextromethorphan for CYP2D6; 2.5 µM midazolam and 30 µM testosterone for CYP3A4); and an NADPH generating system (NGS; 0.1 M glucose-6-phosphate, 10 mg/mL β-NADP^+, and 1 U/mL glucose-6-phosphate dehydrogenase) in a total volume of 200 µL potassium phosphate buffer (0.1 M, pH 7.4). The reaction mixture, excluding NGS, underwent pre-incubation at 37 °C for 5 min, followed by further incubation with NGS for 30 min in a water bath. Well-established selective CYP inhibitors were employed as positive controls (40 µM ketoconazole for CYP3A4, 50 µM furafyllin for CYP1A2, 10 µM quinidine for CYP2D6, 125 µM ticlopidine for CYP2C19 and CYP2B6, 10 µM 8-methoxsalen for CYP2A6, and 10 µM sulfaphenazole for CYP2C9). Post incubation, the reaction was halted by adding 50 µL ice-cold 1% formic acid acetonitrile. After centrifugation at 13,200 rpm for 5 min, the supernatant was collected from the sample and subjected to analysis via an LC-MS/MS system. All experiments were performed in triplicate.
(§2) For the experimental method, the reference method was used. The LC-MS/MS system utilized in this study consisted of an Agilent 1260 binary pump HPLC system coupled with the Agilent 6460 Triple Quadrupole mass spectrometer (Agilent Technologies, Santa Clara, CA, USA), featuring an electrospray ionization source. Chromatographic separation was achieved using a Fortis C8 column (2.1 × 100 mm, 5.0 µm; Fortis Technologies Ltd., Neston, UK). The HPLC mobile phases comprised (A) 0.1% formic acid and (B) 0.1% formic acid in 90% acetonitrile. A gradient elution method was employed with an initial solvent B concentration of 15% and a flow rate of 0.25 mL/min. […] The total run time was 11.0 min, and the injection volume was 5 µL. Mass detection was conducted in the positive ion mode using multiple reaction monitoring (MRM). Specific MRM transitions for each analyte are detailed in Table S4.

CYP2B6 = target: T2, CYP2B6 (Homo sapiens, UniProt P20813); assay: CYP inhibition assay in human liver microsomes (LC-MS/MS cocktail), bupropion to OH-bupropion
T2 construct: Pooled human liver microsomes were purchased from BD Gentest; tissue BD Gentest; host or cells: pooled human liver microsomes
T2 sequence (P20813 1-491): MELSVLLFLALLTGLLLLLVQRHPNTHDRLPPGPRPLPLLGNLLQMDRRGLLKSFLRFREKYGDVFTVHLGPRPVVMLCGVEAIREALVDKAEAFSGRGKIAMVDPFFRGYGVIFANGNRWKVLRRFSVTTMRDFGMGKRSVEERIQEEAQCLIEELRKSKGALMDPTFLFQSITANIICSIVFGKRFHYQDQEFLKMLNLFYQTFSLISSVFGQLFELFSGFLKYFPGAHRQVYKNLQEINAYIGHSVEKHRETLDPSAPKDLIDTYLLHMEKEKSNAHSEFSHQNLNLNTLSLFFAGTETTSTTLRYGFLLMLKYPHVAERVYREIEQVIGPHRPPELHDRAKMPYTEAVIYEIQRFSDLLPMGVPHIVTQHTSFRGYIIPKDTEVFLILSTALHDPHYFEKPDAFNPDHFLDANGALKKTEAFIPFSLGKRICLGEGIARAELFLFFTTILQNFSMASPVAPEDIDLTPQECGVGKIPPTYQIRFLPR
Description: as §1, §2

CYP2C9 = target: T3, CYP2C9 (Homo sapiens, UniProt P11712); assay: CYP inhibition assay in human liver microsomes (LC-MS/MS cocktail), diclofenac to 4-OH-diclofenac
T3 construct: Pooled human liver microsomes were purchased from BD Gentest; tissue BD Gentest; host or cells: pooled human liver microsomes
T3 sequence (P11712 whole entry): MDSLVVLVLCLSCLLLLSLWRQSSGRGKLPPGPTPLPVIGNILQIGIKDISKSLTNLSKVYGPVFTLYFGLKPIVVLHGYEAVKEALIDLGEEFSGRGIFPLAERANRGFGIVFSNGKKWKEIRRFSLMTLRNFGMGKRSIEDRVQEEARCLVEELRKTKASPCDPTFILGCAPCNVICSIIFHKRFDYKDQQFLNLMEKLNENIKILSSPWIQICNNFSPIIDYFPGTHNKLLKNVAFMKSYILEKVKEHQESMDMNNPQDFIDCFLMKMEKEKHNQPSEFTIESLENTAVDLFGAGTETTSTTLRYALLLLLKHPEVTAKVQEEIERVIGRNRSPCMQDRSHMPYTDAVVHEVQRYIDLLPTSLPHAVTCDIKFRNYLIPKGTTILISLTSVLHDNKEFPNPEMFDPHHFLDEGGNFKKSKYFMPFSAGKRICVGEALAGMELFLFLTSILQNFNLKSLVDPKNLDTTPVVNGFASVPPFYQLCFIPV
Description: as §1, §2

CYP2D6 = target: T4, CYP2D6 (Homo sapiens, UniProt P10635); assay: CYP inhibition assay in human liver microsomes (LC-MS/MS cocktail), dextromethorphan to dextrorphan
T4 construct: Pooled human liver microsomes were purchased from BD Gentest; tissue BD Gentest; host or cells: pooled human liver microsomes
T4 sequence (P10635 whole entry): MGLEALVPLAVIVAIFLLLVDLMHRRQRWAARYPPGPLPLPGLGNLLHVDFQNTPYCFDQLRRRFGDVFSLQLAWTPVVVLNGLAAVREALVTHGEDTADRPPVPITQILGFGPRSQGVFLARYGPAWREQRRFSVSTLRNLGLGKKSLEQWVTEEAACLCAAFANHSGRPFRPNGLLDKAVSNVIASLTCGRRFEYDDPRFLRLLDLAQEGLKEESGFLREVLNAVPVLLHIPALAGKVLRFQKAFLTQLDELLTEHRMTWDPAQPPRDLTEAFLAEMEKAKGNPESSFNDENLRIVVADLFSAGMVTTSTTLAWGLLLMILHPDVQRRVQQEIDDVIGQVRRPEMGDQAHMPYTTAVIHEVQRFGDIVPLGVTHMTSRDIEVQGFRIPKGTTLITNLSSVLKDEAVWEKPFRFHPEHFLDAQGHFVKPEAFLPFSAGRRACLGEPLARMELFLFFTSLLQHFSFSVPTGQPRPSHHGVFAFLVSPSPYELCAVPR
Description: as §1, §2

Remaining Activities (% of Control, n = 3) (CYP3A4(T); test substance 0.3 μM): 92.8 ± 0.6 % of Control
Remaining Activities (% of Control, n = 3) (CYP3A4(T); test substance 1 μM): 92.4 ± 0.9 % of Control
Remaining Activities (% of Control, n = 3) (CYP3A4(T); test substance 3 μM): 91.1 ± 3.1 % of Control
Remaining Activities (% of Control, n = 3) (CYP3A4(T); test substance 10 μM): 91.7 ± 4.4 % of Control
Remaining Activities (% of Control, n = 3) (CYP3A4(T); test substance 30 μM): 91.8 ± 3.0 % of Control
Remaining Activities (% of Control, n = 3) (CYP3A4(T); test substance 100 μM): 84.8 ± 7.8 % of Control
Remaining Activities (% of Control, n = 3) (CYP3A4(T); test substance 300 μM): 82.1 ± 3.4 % of Control
Remaining Activities (% of Control, n = 3) (CYP3A4(T); test substance 1000 μM): 80.0 ± 6.6 % of Control
Remaining Activities (% of Control, n = 3) (CYP2B6; test substance 0.3 μM): 121.0 ± 11.6 % of Control
Remaining Activities (% of Control, n = 3) (CYP2B6; test substance 1 μM): 116.2 ± 5.8 % of Control
Remaining Activities (% of Control, n = 3) (CYP2B6; test substance 3 μM): 114.3 ± 3.5 % of Control
Remaining Activities (% of Control, n = 3) (CYP2B6; test substance 10 μM): 108.2 ± 3.1 % of Control
Remaining Activities (% of Control, n = 3) (CYP2B6; test substance 30 μM): 107.8 ± 1.3 % of Control
Remaining Activities (% of Control, n = 3) (CYP2B6; test substance 100 μM): 111.2 ± 2.3 % of Control
Remaining Activities (% of Control, n = 3) (CYP2B6; test substance 300 μM): 105.6 ± 1.8 % of Control
Remaining Activities (% of Control, n = 3) (CYP2B6; test substance 1000 μM): 103.5 ± 9.2 % of Control
Remaining Activities (% of Control, n = 3) (CYP2C9; test substance 0.3 μM): 115.5 ± 15.2 % of Control
Remaining Activities (% of Control, n = 3) (CYP2C9; test substance 1 μM): 108.7 ± 1.7 % of Control
Remaining Activities (% of Control, n = 3) (CYP2C9; test substance 3 μM): 109.2 ± 2.4 % of Control
Remaining Activities (% of Control, n = 3) (CYP2C9; test substance 10 μM): 104.0 ± 2.3 % of Control
Remaining Activities (% of Control, n = 3) (CYP2C9; test substance 30 μM): 105.8 ± 2.7 % of Control
Remaining Activities (% of Control, n = 3) (CYP2C9; test substance 100 μM): 101.2 ± 4.8 % of Control
Remaining Activities (% of Control, n = 3) (CYP2C9; test substance 300 μM): 97.2 ± 2.8 % of Control
Remaining Activities (% of Control, n = 3) (CYP2C9; test substance 1000 μM): 91.1 ± 10.1 % of Control
Remaining Activities (% of Control, n = 3) (CYP2D6; test substance 0.3 μM): 107.6 ± 7.4 % of Control
Remaining Activities (% of Control, n = 3) (CYP2D6; test substance 1 μM): 104.9 ± 1.0 % of Control
Remaining Activities (% of Control, n = 3) (CYP2D6; test substance 3 μM): 106.2 ± 3.7 % of Control
Remaining Activities (% of Control, n = 3) (CYP2D6; test substance 10 μM): 101.6 ± 0.5 % of Control
Remaining Activities (% of Control, n = 3) (CYP2D6; test substance 30 μM): 100.4 ± 1.4 % of Control
Remaining Activities (% of Control, n = 3) (CYP2D6; test substance 100 μM): 102.6 ± 1.7 % of Control
Remaining Activities (% of Control, n = 3) (CYP2D6; test substance 300 μM): 100.6 ± 1.3 % of Control
Remaining Activities (% of Control, n = 3) (CYP2D6; test substance 1000 μM): 99.5 ± 4.8 % of Control
SMILES: N[C@H]1C(O)O[C@H](CO)[C@@H](O)[C@@H]1O (some centres unmarked) [GCS, glucosamine]
